From ChEMBL document CHEMBL1146731, “Design, synthesis, and structure-activity relationships of pyrazolo[3,4-d]pyrimidines: a novel class of potent enterovirus inhibitors” (Bioorg Med Chem Lett, 2004) come the findings set out here.

The term IC50 denotes the concentration needed to halve the response being measured. A lower IC50 goes with higher potency.

One experiment deals with Influenza B virus. The experiment is described as follows: Inhibitory concentration of compound against formation of Influenza A virus (HK) plaque in plaque reduction assay. The format is functional, organism-based.
Experiment [1] relates to Coxsackievirus. Kind of experiment: Inhibitory concentration of compound against formation of Coxsackievirus A16 plaque in plaque reduction assay. The class given is functional, organism-based. In general terms: In a plaque reduction assay, fewer plaques than in the control indicate reduced infectivity or spread.
The test system of experiment [2] is Coxsackievirus. Kind of experiment: Inhibitory concentration of compound against formation of Coxsackievirus B3 plaque in plaque reduction assay. The format is functional, organism-based.
The test system of experiment [3] is Human rhinovirus sp. Kind of experiment: Inhibitory concentration of compound against formation of Human rhinovirus 14 plaque in plaque reduction assay. The class given is functional, organism-based.
Experiment [4] relates to Echovirus. Kind of experiment: Inhibitory concentration of compound against formation of Echovirus 9 virus plaque in plaque reduction assay. The class given is functional, organism-based.
In experiment [5] the test system is Coxsackievirus. Kind of experiment: Inhibitory concentration of compound against formation of Coxsackievirus B5 plaque in plaque reduction assay. The class given is functional, organism-based.
For a further experiment, the system named is Human alphaherpesvirus 1. Kind of experiment: Inhibitory concentration of compound against formation of Herpes simplex virus 1 plaque in plaque reduction assay.
Experiment [6] has as its system Coxsackievirus. Kind of experiment: Inhibitory concentration of compound against formation of Coxsackievirus B1 plaque in plaque reduction assay. The class given is functional, organism-based.
Experiment [7] has as its system Coxsackievirus. Kind of experiment: Inhibitory concentration of compound against formation of Coxsackievirus B4 plaque in plaque reduction assay. The class given is functional, organism-based.
The test system of experiment [8] is Coxsackievirus. Kind of experiment: Inhibitory concentration of compound against formation of Coxsackievirus B6 plaque in plaque reduction assay. The class given is functional, organism-based.
Experiment [9] concerns Human rhinovirus sp. Kind of experiment: Inhibitory concentration of compound against formation of Human rhinovirus 2 plaque in plaque reduction assay. The format is functional, organism-based.
A further experiment has as its system Influenza A virus. Kind of experiment: Inhibitory concentration of compound against formation of Influenza A virus (WSN) plaque in plaque reduction assay. The class given is functional, organism-based.
In experiment [10] the test system is Echovirus. Kind of experiment: Inhibitory concentration of compound against formation of Echovirus 29 virus plaque in plaque reduction assay. The class given is functional, organism-based.
The subject of experiment [11] is Coxsackievirus. Kind of experiment: Inhibitory concentration to prevent formation of Coxsackievirus B3 (CVB3) plaques. The class given is functional, organism-based.
A further experiment deals with Rhabdomyosarcoma cell. Kind of experiment: Cytotoxic effect of compound towards human Rhabdomyosarcoma cell line was evaluated. The class given is functional, cell-based.
Experiment [12] relates to Enterovirus. Kind of experiment: Inhibitory concentration to prevent formation of Enterovirus (EV 71) plaques. The format is functional, organism-based.
For experiment [13], the system named is Coxsackievirus. The experiment is described as follows: Inhibitory concentration of compound against formation of Coxsackievirus A10 plaque in plaque reduction assay. The format is functional, organism-based.
Experiment [14] deals with Enterovirus. Kind of experiment: Inhibitory concentration of compound against formation of Enterovirus 71 (1743) genotype B plaque in plaque reduction assay. The class given is functional, organism-based.
The test system of experiment [15] is Enterovirus. The experiment is described as follows: Inhibitory concentration of compound against formation of Enterovirus 68 (EV 68) plaque in plaque reduction assay. The format is functional, organism-based.
For experiment [16], the system named is Enterovirus. Kind of experiment: Inhibitory concentration of compound against formation of Enterovirus 71 (2231) genotype C plaque in plaque reduction assay. The class given is functional, organism-based.
Experiment [17] has as its system Coxsackievirus. Kind of experiment: Inhibitory concentration of compound against formation of Coxsackievirus B2 plaque in plaque reduction assay. The format is functional, organism-based.
The test system of experiment [18] is Coxsackievirus. Kind of experiment: Inhibitory concentration of compound against formation of Coxsackievirus A9 plaque in plaque reduction assay. The class given is functional, organism-based.
For experiment [19], the system named is Enterovirus. Kind of experiment: Inhibitory concentration of compound against formation of Enterovirus 71 (BrCr) genotype A plaque in plaque reduction assay. The format is functional, organism-based.
Experiment [20] relates to Coxsackievirus. Kind of experiment: Inhibitory concentration of compound against formation of Coxsackievirus A24 plaque in plaque reduction assay. The format is functional, organism-based.

For the compound `O=C1N(CCCCCCOc2ccc(Br)cc2)CCN1c1ccncc1`, the IC50 was more than 25 µM in the experiment with Influenza B virus; more than 25000 nM in the experiment with Coxsackievirus [1]; more than 25000 nM with Coxsackievirus [2]; 11.6 µM in the experiment on Human rhinovirus sp. [3]; 2820 nM with Echovirus [4]; more than 25000 nM in the experiment on Coxsackievirus [5]. Further, the IC50 in the experiment on Human alphaherpesvirus 1 is more than 25 µM; in the experiment with Coxsackievirus [6] it was more than 25000 nM; in the experiment on Coxsackievirus [7] it was more than 25000 nM; in the experiment on Coxsackievirus [8], more than 25000 nM; with Human rhinovirus sp. [9], more than 25 µM; with Influenza A virus, more than 25 µM. In the experiment on Echovirus [10], this compound returned an IC50 of more than 25 µM.

As for `Cc1ccsc1C(c1c(C)noc1C)N1CCN(c2ncnc3c2cnn3-c2ccccc2)CC1` (stereo unspecified), the IC50 in the experiment on Coxsackievirus [11] was 81 nM; with Rhabdomyosarcoma cell, more than 25 µM; in the experiment with Enterovirus [12], 650 nM.

Turning to `c1ccc(C(c2nccs2)N2CCN(c3ncnc4c3cnn4-c3ccccc3)CC2)cc1` (stereo unspecified), the figures for the IC50 in the experiment with Coxsackievirus [11], with Rhabdomyosarcoma cell and in the experiment with Enterovirus [12] were 110 nM, more than 25 µM and 340 nM, respectively.

In the case of `Clc1ccc(C(c2ccccc2)N2CCN(c3ncnc4c3cnn4-c3ccccc3)CC2)cc1` (stereo unspecified), the IC50 in the experiment with Coxsackievirus [11] is 260 nM; in the experiment with Rhabdomyosarcoma cell, more than 25 µM; in the experiment on Enterovirus [12], 1970 nM.

As for `FC(F)(F)c1ccc(C(c2ccccc2)N2CCN(c3ncnc4c3cnn4-c3ccccc3)CC2)cc1` (stereo unspecified), the IC50 with Coxsackievirus [11] was 300 nM; with Rhabdomyosarcoma cell it was more than 25 µM; in the experiment on Enterovirus [12] it was 1650 nM.

For `c1ccc(-c2ccc(C(c3ccccc3)N3CCN(c4ncnc5c4cnn5-c4ccccc4)CC3)cc2)cc1` (stereo unspecified), the results for the 50% inhibitory concentration (IC50) in the experiment on Coxsackievirus [11], with Rhabdomyosarcoma cell and with Enterovirus [12] were 310 nM, more than 25 µM and 1900 nM, respectively.

Take `Brc1ccc(C(c2ccccc2)N2CCN(c3ncnc4c3cnn4-c3ccccc3)CC2)cc1` (stereo unspecified): the IC50 in the experiment on Coxsackievirus [11] was 490 nM; with Rhabdomyosarcoma cell, more than 25 µM; in the experiment on Enterovirus [12], 910 nM.

Regarding `c1ccc(C(c2ccco2)N2CCN(c3ncnc4c3cnn4-c3ccccc3)CC2)cc1` (stereo unspecified), the IC50 in the experiment on Coxsackievirus [11] was 270 nM; in the experiment on Rhabdomyosarcoma cell it was more than 25 µM; in the experiment with Enterovirus [12] it was 1250 nM.

Turning to `c1ccc(Cn2ncc3c(N4CCN(C(c5ccccc5)c5ccccc5)CC4)ncnc32)cc1`, the IC50 is more than 25000 nM in the experiment with Coxsackievirus [11], more than 25 µM with Rhabdomyosarcoma cell and more than 25000 nM in the experiment on Enterovirus [12].

On to `Cc1ccsc1C(c1ccccc1)N1CCN(c2ncnc3c2cnn3-c2ccccc2)CC1` (stereo unspecified), for which the results for the IC50 in the experiment on Coxsackievirus [11], with Rhabdomyosarcoma cell and in the experiment with Enterovirus [12] were 89 nM, more than 25 µM and 460 nM, respectively.

Take `c1ccc(C(c2ccccn2)N2CCN(c3ncnc4c3cnn4-c3ccccc3)CC2)cc1` (stereo unspecified): the figures for the IC50 with Coxsackievirus [11], with Rhabdomyosarcoma cell and in the experiment on Enterovirus [12] were 170 nM, more than 25 µM and 370 nM, respectively.

As to `CCCn1ncc2c(N3CCN(C(c4ccccc4)c4ccccc4)CC3)ncnc21`, the results for the IC50 with Coxsackievirus [11], with Rhabdomyosarcoma cell and with Enterovirus [12] were more than 25000 nM, more than 25 µM and more than 25000 nM, respectively.

`Cc1ccccc1C(c1ccccc1)N1CCN(c2ncnc3c2cnn3-c2ccccc2)CC1` (stereo unspecified): the IC50 in the experiment with Coxsackievirus [11] is 310 nM; with Rhabdomyosarcoma cell, more than 25 µM; with Enterovirus [12], 1980 nM.

With `c1ccc(C(c2cccnc2)N2CCN(c3ncnc4c3cnn4-c3ccccc3)CC2)cc1` (stereo unspecified), the values for the IC50 in the experiment with Coxsackievirus [11], with Rhabdomyosarcoma cell and in the experiment on Enterovirus [12] were 530 nM, more than 25 µM and 4600 nM, respectively.

For the compound `CCn1ncc2c(N3CCN(C(c4ccccc4)c4ccccc4)CC3)ncnc21`, the IC50 was more than 25000 nM in the experiment on Coxsackievirus [11], more than 25 µM in the experiment on Rhabdomyosarcoma cell and more than 25000 nM with Enterovirus [12].

Regarding `Cc1ccsc1C(c1ccccc1Br)N1CCN(c2ncnc3c2cnn3-c2ccccc2)CC1` (stereo unspecified), the figures for the IC50 in the experiment with Coxsackievirus [11], in the experiment on Rhabdomyosarcoma cell and in the experiment with Enterovirus [12] were 72 nM, more than 25 µM and 320 nM, respectively.

For the compound `Cc1ccsc1C(c1ccccn1)N1CCN(c2ncnc3c2cnn3-c2ccccc2)CC1` (stereo unspecified), the IC50 in the experiment on Coxsackievirus [11] is 63 nM; with Rhabdomyosarcoma cell it was more than 25 µM; in the experiment with Enterovirus [12], 360 nM.

In the case of `c1ccc(C(c2ccncc2)N2CCN(c3ncnc4c3cnn4-c3ccccc3)CC2)cc1` (stereo unspecified), the IC50 in the experiment with Coxsackievirus [11] was 300 nM; in the experiment on Rhabdomyosarcoma cell, more than 25 µM; in the experiment with Enterovirus [12] it was 780 nM.

As to `c1ccc(C(c2ccccc2)N2CCN(c3ncnc4c3cnn4-c3ccccc3)CC2)cc1`, the IC50 was 150 nM in the experiment with Coxsackievirus [11]; more than 25 µM in the experiment with Influenza B virus; 230 nM with Coxsackievirus [1]; 150 nM in the experiment on Coxsackievirus [2]; 390 nM in the experiment with Coxsackievirus [13]; more than 25 µM in the experiment with Human rhinovirus sp. [3]. In addition, the IC50 in the experiment on Enterovirus [14] is 470 nM; with Echovirus [4], 300 nM; in the experiment with Coxsackievirus [5], 440 nM; with Human alphaherpesvirus 1, more than 25 µM; with Coxsackievirus [6] (Coxsackievirus) it was 690 nM; in the experiment with Rhabdomyosarcoma cell, more than 25 µM. In addition, the IC50 is 160 nM in the experiment on Coxsackievirus [7]; 940 nM with Coxsackievirus [8]; more than 25 µM in the experiment with Human rhinovirus sp. [9]; 180 nM with Enterovirus [15]; 520 nM with Enterovirus [16]; 80 nM in the experiment on Coxsackievirus [17]. The IC50 was 260 nM with Coxsackievirus [18]; 350 nM in the experiment on Enterovirus [19]; more than 25 µM in the experiment with Influenza A virus; 410 nM in the experiment with Enterovirus [12]; more than 25 µM in the experiment on Echovirus [10]; 50 nM with Coxsackievirus [20].

As for `Cn1ncc2c(N3CCN(C(c4ccccc4)c4ccccc4)CC3)ncnc21`, the figures for the IC50 with Coxsackievirus [11], with Rhabdomyosarcoma cell and with Enterovirus [12] were more than 25000 nM, more than 25 µM and more than 25000 nM, respectively.

On to `Cc1noc(C)c1C(c1ccccc1)N1CCN(c2ncnc3c2cnn3-c2ccccc2)CC1` (stereo unspecified), for which the IC50 with Coxsackievirus [11] is 95 nM; with Rhabdomyosarcoma cell it was more than 25 µM; in the experiment on Enterovirus [12], 580 nM.

For the compound `Cc1ccccc1C(c1sccc1C)N1CCN(c2ncnc3c2cnn3-c2ccccc2)CC1` (stereo unspecified), the IC50 in the experiment on Coxsackievirus [11] was 84 nM; in the experiment on Rhabdomyosarcoma cell, more than 25 µM; in the experiment with Enterovirus [12], 410 nM.

Regarding `N#Cc1cccc(C(c2ccccc2)N2CCN(c3ncnc4c3cnn4-c3ccccc3)CC2)c1` (stereo unspecified), the IC50 with Coxsackievirus [11] was 110 nM; in the experiment on Rhabdomyosarcoma cell it was more than 25 µM; with Enterovirus [12], 780 nM.

Consider `c1ccc(C(c2ccccc2)N2CCN(c3[nH]cnc4nncc3-4)CC2)cc1`, for which the IC50 in the experiment on Coxsackievirus [11] is more than 25000 nM; in the experiment on Rhabdomyosarcoma cell, more than 25 µM; with Enterovirus [12] it was more than 25000 nM.

As to `N#Cc1ccc(C(c2ccccc2)N2CCN(c3ncnc4c3cnn4-c3ccccc3)CC2)cc1` (stereo unspecified), the IC50 was 180 nM with Coxsackievirus [11], more than 25 µM with Rhabdomyosarcoma cell and 940 nM with Enterovirus [12].
